Assay results taken from patent US4017487A, “7β-(D-5-amino-5-carboxyvaleramido )-7-methoxy-3-substituted-3-cephem-4-carboxylic acid antibiotics” (priority 1974, dated 1977).
Where a name gives a salt, the structure may show the parent alone. Read-outs that look alike come from different tables or passages of the source.

What was measured:
[1] = test system: Proteus vulgaris MB-838; assay: Disc-plate assay using Proteus vulgaris
[2] = test system: gram-negative and gram-positive infections; assay: In vivo protection against infection (general statements); design: species or system mice
From the text: (§1) Methods: The method employed in this characterization is as follows: Female white Swiss mice, average weight 20-23 grams, were infected intraperitoneally with 3-20 times the number of organisms calculated to be lethal for 50% of the infected control animals (3-20 LD50 doses). At the time of infection and again six hours later, therapy was given by the designated route. Controls of the virulence of the culture and the toxicity of the antibiotic for uninfected mice were included in the tests. Seven days after infection the test was considered complete and the amount of the antibiotic (I) that would be required to protect 50% of the infected and treated animals was calculated by the method of Knudsen and Curtis; J. Amer. Stat. Assoc. Vol. 42: page 282 (1947).
The method employed in these studies is the same as described above with regard to the in vivo characterization of 810A.

[3] = test system: degradative bacteria / enzymatic degradation; assay: Resistance to enzymatic degradation / bacterial inactivation (general statements); assay type: biochemical; settings: compared with cephalosporin C
From the text: Bacterial Inactivation with 810A: An in vitro study was designed to determine the resistance of Antibiotic 810A, to bacterial inactivation as compared with cephalosporin C, cephaloridine and cephalothin.

[4] = test system: Proteus morganii 356; assay: In vivo mouse protection test, cephalosporin-resistant clinical isolate; design: species or system white Swiss mice; settings: s.c. × 2 doses
From the text: as §1
In addition to the aforementioned in vivo trials of the product, a clinical isolate of Proteus morganii 356 which is resistant to cephalosporins and capable of degrading cephalosporin C, was employed in a mouse protection test performed in the same manner as reported above.

[5] = test system: Aerobacter cloacae (MB-2646); assay: Bacterial inactivation, cell-free extract; assay type: biochemical; settings: for Antibiotic Activity Remaining: starting 250 μg./ml.
Procedure: The ability of Antibiotic 810A and cephalosporin C to withstand the degradative effect of the culture Aerobacter cloacae (MB-2646) was also determined. This culture is gram-negative and resistant to cephalosporin C. […] The source of the inactivating substance is a 1:160 dilution of the filtrate of an 18 hour 37° C. shake culture of Aerobacter cloacae MB-2646 in nutrient broth containing 0.2% yeast extract. Table XIV, infra, indicates the percent inactivation of Antibotic 810A, cephalothin, cephaloridine and cephalosporin C on Vibrio percolans (MB-1272) via this method:
Using the same assay procedure as described above, Table XV, infra, indicates the relative resistance of Antibiotic 810A to enzymatic inactivation by Aerobacter cloacae. The starting concentration is 250 μg./ml. Results are expressed in μg./ml.

[6] = test system: Proteus morganii 3202; assay: In vivo mouse protection test; design: species or system white Swiss mice; settings: 4000 mg. × 2 doses
From the text: as §1
The method employed in these studies is the same as described above with regard to the in vivo characterization of 810A. The results of these tests are described below in Table XIb:
Administration was by subcutaneous injection. At the completion of the test period, usually seven days after administration, the amount of product required to protect 50% of the mice (ED50) from this otherwise fatal injection was calculated: […]

[7] = test system: Alcaligenes faecalis (MB-9); settings: alcaligenes faecalis cells, 3 h
[8] = test system: Bacillus subtilis; assay: In vitro disc-plate agar diffusion, antibacterial spectrum (7 mm = no zone); assay type: cell-based; settings: 16 h, read-out: Inhibition Zone Diameter
[9] = test system: Bacillus sp.; assay: as above; assay type: cell-based; settings: 16 h, 192 μg/ml, inoculum 5 ml/150 ml, 25° C., read-out: Inhibition Zone Diameter
[10] = test system: Salmonella gallinarum; assay: as above; assay type: cell-based; settings: Salmonella enterica, 16 h, 192 μg/ml, inoculum 10 ml/150 ml, 25° C., read-out: Inhibition Zone Diameter
[11] = test system: Escherichia coli strains; assay: microbe, parasite or virus in culture; assay type: cell-based; settings: 16 h, 192 μg/ml, Sensitive parent, 25° C., read-out: Inhibition Zone Diameter
[12] = test system: Vibrio percolans MB-1272; assay: Disc-plate assay using Vibrio percolans
[13] = test system: Proteus vulgaris; assay: In vitro disc-plate agar diffusion, antibacterial spectrum (7 mm = no zone); assay type: cell-based; settings: 16 h, read-out: Inhibition Zone Diameter
[14] = test system: Xanthomonas vesicatoria; assay: as above; assay type: cell-based; settings: 16 h, read-out: Inhibition Zone Diameter
[15] = test system: Escherichia coli W-MB-60; assay: Special effects spectrum in vitro study, disc-plate (7 mm = no zone); assay type: cell-based; settings: WMB60, 16 h
[16] = test system: Escherichia coli; assay: In vitro disc-plate agar diffusion, antibacterial spectrum (7 mm disc; 7 mm = no inhibition zone); assay type: cell-based; settings: 16 h, 192 μg/ml, inoculum 5 ml/150 ml, 25° C., read-out: Inhibition Zone Diameter
[17] = test system: gram-negative and gram-positive bacteria; assay: Antibacterial activity (general statements); assay type: cell-based
[18] = test system: penicillinase; settings: cited from earlier work
[19] = test system: gram-negative and gram-positive bacteria; settings: cited from earlier work
[20] = test system: Escherichia coli 236; assay: Bacterial inactivation; settings: four hours; B. subtilis (MB-964); 240 min
[21] = test system: Proteus morganii 251; assay: Bacterial inactivation; settings: four hours; B. subtilis (MB-964); 240 min
[22] = test system: Proteus mirabilis 241; assay: Bacterial inactivation; settings: four hours; B. subtilis (MB-964); 240 min
[23] = test system: Alcaligenes faecalis (MB-9); settings: known property of the organism; cited from earlier work
[24] = test system: Proteus morganii 356; assay: Bacterial inactivation; settings: four hours; B. subtilis (MB-964); 240 min
[25] = test system: Alcaligenes viscosus (MB-12); assay: Bacterial inactivation, washed bacterial cells; settings: 4 hour incubation; assayed on B. subtilis (MB-964) plates
[26] = 2 hour incubation, cell-free extract, assayed on V. percolans (MB-1272) plates
[27] = 2 hour incubation, assay organism B. subtilis 964
[28] = 2 hour incubation, assay organism V. percolans 1272

Structure (SMILES): COC(=Cc1ccc(OS(=O)(=O)O)cc1)C(=O)OCC1=C(C(=O)O)N2C(=O)[C@](NC(=O)CCC[C@@H](N)C(=O)O)(OC)[C@H]2SC1 [Ic, 7β-(D-5-amino-5-carboxyvaleramido)-3-(α-methoxy-p-sulfooxycinnamoyloxymethyl)-7-methoxy-3-cephem-4-carboxylic acid]
- Total Biological Units ([1]; Example 6 separation): 10,000 units
- in vivo protection / activity ([2]; mouse, in vivo): when administered intraperitoneally, it is effective against a variety of gram-negative and gram-positive infections
- oral protection against infections ([2]; oral): protects against infections due to Proteus vulgaris
- resistance to enzymatic degradation [3]: more resistant to enzymatic degradation than cephalosporin C

Structure (SMILES): CC(=O)OCC1=C(C(=O)O)N2C(=O)[C@@H](NC(=O)Cc3cccs3)[C@H]2SC1 [Cephalothin]
- ED50 by Subcutaneous Route × 2 Doses (average of Two Trials) [4]: > 20,000 μg.
- percent inactivation [5, 26]: 66%
- Antibiotic Activity Remaining [5, 27]: 140 µg/mL
- Antibiotic Activity Remaining [5, 28]: 85 µg/mL
- protection against Proteus morganii 3202 [6]: failed to protect
- percent inactivation [7]: 50%

Structure (SMILES): COC(=Cc1ccc(O)cc1)C(=O)OCC1=C(C(=O)O)N2C(=O)[C@](NC(=O)CCC[C@@H](N)C(=O)O)(OC)[C@H]2SC1 [7β-(D-5-amino-5-carboxyvaleramido)-3-(α-methoxy-p-hydroxycinnamoyloxymethyl)-7-methoxy-3-cephem-4-carboxylic acid]
- IC (25 mm zone) ([1]; Proteus vulgaris, MB838, read-out: bio-potency (concentration for a 25 mm. zone)): 18 µg/mL

Structure (SMILES): O=C(Cc1cccs1)N[C@@H]1C(=O)N2C(C(=O)[O-])=C(C[n+]3ccccc3)CS[C@H]12 [Cephaloridine]
- ED50 by Subcutaneous Route × 2 Doses (average of Two Trials) [4]: 9,270 μg.
- Antibiotic Activity Remaining [5, 27]: < 10 µg/mL
- Antibiotic Activity Remaining [5, 28]: < 10 µg/mL
- percent inactivation ([5]; aerobacter cloacae culture filtrate, 2 h): 96%
- protection against Proteus morganii 3202 [6]: failed to protect

Structure (SMILES): CO[C@@]1(NC(=O)CCC[C@@H](N)C(=O)O)C(=O)N2C(C(=O)O)=C(COC(N)=O)CS[C@@H]21 [Sodium Salt]
- zone of inhibition at 192 µg/mL [8]: 18 mm
- zone of inhibition at 192 µg/mL [9]: 7 mm
- zone of inhibition at 192 µg/mL [10]: 25 mm
- zone of inhibition at 192 µg/mL [11]: 18 mm
- concentration giving a 25 mm. zone ([12]; 25 mm. zone, listed as Sodium Salt of 842A): 5 µg/mL
- zone of inhibition at 192 µg/mL [13]: 24 mm
- zone of inhibition at 192 µg/mL [14]: 17 mm
- zone of inhibition at 192 µg/mL ([15]; pH 9, read-out: Inhibition Zone Diameter, 192 μg/ml, 0.1 M Phosphate Buffer pH 9): 24 mm
- zone of inhibition at 192 µg/mL ([15]; read-out: Inhibition Zone Diameter, 192 μg/ml, Cation Exchange Resin (Dow ET 91) 1%): 18 mm
- zone of inhibition at 192 µg/mL ([15]; read-out: Inhibition Zone Diameter, 192 μg/ml, Control (no additions)): 18 mm
- zone of inhibition at 192 µg/mL [16]: 18 mm

Structure (SMILES): CO[C@@]1(NC(=O)CCC[C@@H](NC(=O)OC(C)(C)C)C(=O)O)C(=O)N2C(C(=O)O)=C(COC(N)=O)CS[C@@H]21 [7β-(D-5N-tert-tertiary-butoxycarbonylamino-5-carboxyvaleramido)-3-(carbamoyloxymethyl)-7-methoxy-3-cephem-4-carboxylic acid]
- biopotency relative to starting material ([17]; relative to disodium salt of 842A): one-tenth

Structure (SMILES): CC1(C)S[C@@H]2[C@H](NC(=O)Cc3ccccc3)C(=O)N2[C@H]1C(=O)O [Penicillin G]
- resistance to penicillinase [18]: in the presence of penicillinase it is degraded to a form which is ineffective against most pathogens

Structure (SMILES): CC(=O)OCC1=C(C(=O)O)N2C(=O)[C@@H](NC(=O)CCC[C@@H](N)C(=O)O)[C@H]2SC1 [Cephalosporin C]
- percent inactivation [5, 26]: 96%
- antibacterial activity [19]: only moderately active
- antibacterial activity ([19]; listed as cepahlosporin C): relatively low antibacterial activity
- percent inactivation [20]: > 99%
- percent inactivation [21]: > 99%
- percent inactivation [22]: 72%
- inactivation of cephalosporin C [23]: completely inactivate
- percent inactivation [24]: > 99%
- resistance to penicillinase [18]: inherent resistance to penicillinase
- percent inactivation [25]: > 99%

Structure (SMILES): CO[C@@]1(NC(=O)CCC[C@@H](N)C(=O)O)C(=O)N2C(C(=O)O)=C(C)CS[C@@H]21 [7β-(D-5-amino-5-carboxyvaleramido)-3-methyl-7-methoxy-3-cephem-4-carboxylic acid]
- bioactivity ([12]; 50 μg/ml): Inactive

Structure (SMILES): CO[C@@]1(NC(=O)CCC[C@@H](N)C(=O)O)C(=O)N2C(C(=O)O)=C(CN=[N+]=[N-])CS[C@@H]21 [7β-(D-5-amino-5-carboxyvaleramido)-3-(azidomethyl)-7-methoxy-3-cephem-4-carboxylic acid]
- bioactivity ([17]; several strains of bacteria): possessed bioactivity against several strains of bacteria
